Legend:
[1] = Stability of CSA-13 salts: purity under various conditions; assay type: physicochemical
Protocol: Approximately 300 mg of CSA-13 was weighed into a scintillation vial. 6 mL of tetrohydrofuran was added to the vial. Hydrochloric acid (2 equivalents) was then added to the vial. […] Solids were isolated and dried at ambient temperature prior to analysis.

[2] = Coating stability (sluff off) of polyurethane coatings on medical devices immersed in water; assay type: physicochemical
Protocol: In a first comparative test, medical devices made from various substrate materials (i.e., stainless steel, titanium, and silicone) were coated with polyurethane coatings containing either di-NDSA salts of CSA compounds (i.e., CSA-13 and/or CSA-131) or HCl acid addition salts of the same CSA compounds, and then tested for long-term stability when immersed in water. Coating stability was determined by measuring how fast the coatings began to sluff off from the medical device. The NDSA salts are di-addition salts.

[3] = Coating stability (sluff off) of silicone coatings on medical devices immersed in water; assay type: physicochemical
Protocol: In a second comparative test, medical devices made from various substrate materials (i.e., stainless steel, titanium, and silicone) were coated with silicone coatings containing either di-NDSA salts of CSA compounds (i.e., CSA-13 and/or CSA-131) or HCl acid addition salts of the same CSA compounds, and then tested for long-term stability when immersed in water. Coating stability was determined by measuring how fast the coatings began to sluff off from the medical device.

[4] = Dynamic vapor sorption (DVS) analysis, XRPD before and after; assay type: physicochemical
Excerpt: FIG. 9 provides an overlay of the XRPD spectrum pre- and post-DVS analysis.

[5] = Rate of elution of CSA from polyurethane coatings immersed in water; assay type: physicochemical
Excerpt: In a third comparative test, medical devices made from various substrate materials (i.e., stainless steel, titanium, and silicone) were coated with polyurethane coatings containing either a di-NDSA salt of a representative CSA compound (i.e., CSA-131) or the HCl acid addition salt of the same CSA compound, and then tested to determine the rate of elution of the CSA compound from the coated medical device when immersed in water.

[6] = Rate of elution of CSA from silicone coatings immersed in water; assay type: physicochemical
Excerpt: In a fourth comparative test, medical devices made from various substrate materials (i.e., stainless steel, titanium, and silicone) were coated with silicone coatings containing either a di-NDSA salt of a representative CSA compound (i.e., CSA-131) or the HCl acid addition salt of the same CSA compound, and then tested to determine the rate of elution of the CSA compound from the coated medical device when immersed in water.

[7] = Rate of elution of CSA from impregnated PLGA copolymer devices immersed in water; assay type: physicochemical; details: impregnated PLGA copolymer device
Excerpt: In a fifth comparative test, medical devices were made from PLGA copolymer impregnated with either a di-NDSA salt of a representative CSA compound (i.e., CSA-131) or the HCl acid addition salt of the same CSA compound, and then tested to determine the rate of elution of the CSA compound from the medical device when immersed in water.

[8] = Reactivity with ethylene oxide (EtO) in polyurethane coating, by mass spectroscopy; assay type: physicochemical; details: ETT with polyurethane coating sterilized multiple times with EtO
Excerpt: In a seventh comparative test, the elution rate and antibacterial activity of polyurethane coatings containing either the di-NDSA salt of a representative CSA compound (i.e., CSA-131) or the HCl acid addition salt of the same CSA compound following sterilization with ethylene oxide (EtO) were compared, and also the tendency of the acid addition salt of the CSA compound to react with the EtO.
For EtO reactivity with the HCl acid addition salt of CSA-131, the following percentages of CSA-131 and CSA-131-EtO adducts were observed via mass spectroscopy following EtO treatment of a medical device with a polyurethane coating containing the HCl acid addition salt of CSA-131.
Moreover, elution of CSA-131 from the ETT with the same polyurethane coating containing the di-NDSA of CSA-131 remained relatively consistent for 96 hours, providing continuous activity against biofilms. This is shown by the data in Table 25.

[9] = Elution of CSA-131 from polyurethane coating following EtO sterilization; assay type: physicochemical; details: for % of Total μg on OD: total CSA-131 content on OD 3976 μg; for Eluted Amount in μg/cm^3: total OD surface area 99.4 cm^2; for Average Amount Eluted: ETT polyurethane coating
Protocol: The elution rate of CSA-131 from the same polyurethane coating containing the HCl acid addition salt of CSA-131 (with solution exchange every 24 hours) is shown in Table 24: […] Moreover, elution of CSA-131 from the ETT with the same polyurethane coating containing the di-NDSA of CSA-131 remained relatively consistent for 96 hours, providing continuous activity against biofilms. This is shown by the data in Table 25.

[10] = Solvent solubility test (solvent addition technique); assay type: physicochemical
Protocol: (§1) Solubility values were estimated by a solvent addition technique, based on the following protocol: CSA-13 (20 mg) was weighed and individually distributed to 24 vials. Each solvent was added to the appropriate vial in 10 aliquots of 10 μL, 5 aliquots of 20 μL, 3 aliquots of 100 μL, and 1 aliquot of 500 μL. If complete dissolution was observed, the additions were stopped. Between additions, the sample was stirred to further encourage dissolution. If […] of solvent was added without dissolution, the solubility was calculated to be below this point. Polarized light microscopy analysis was performed on solids obtained from acetonitrile, 1,4-dioxane, ethyl acetate, isopropanol, and THF.
A solubility screen was performed as described above for the sulphate salt of CSA-13.
as §1, with “CSA-44” for “CSA-13”, “from acetone,” for “from”, “1,4-dioxane, ethanol,” for “1,4-dioxane,”, “acetate,” for “acetate, isopropanol,”, “methanol.” for “THF.”

[11] = polyurethane coating on Silicone
[12] = polyurethane coating on Stainless Steel
[13] = polyurethane coating on Titanium
[14] = silicone coating on Stainless Steel

## CCCCCCCCNCCCC(C)C1CCC2C3C(OCCCN)CC4CC(OCCCN)CCC4(C)C3CC(OCCCN)C12C.O=S(=O)(O)c1cccc2c(S(=O)(=O)O)cccc12.O=S(=O)(O)c1cccc2c(S(=O)(=O)O)cccc12 (stereo not shown) [CSA-13 NDSA]
[1]; 40° C./75% RH
  Purity (%): 97.93%
[1]; 80° C.
  Purity (%): 98.16%
[1]; Ambient light
  Purity (%): 98.57%
[1]; Starting Purity
  Purity (%): 98.52%
[2]; [11]
  Sluff Off Time: None after 30+ days
[2]; [12]
  Sluff Off Time: None after 30+ days
[2]; [13]
  Sluff Off Time: None after 30+ days
[3]; silicone coating on Silicone
  Sluff Off Time: None after 30+ days
[3]; [14]
  Sluff Off Time: None after 30+ days
[3]; silicone coating on Titanium
  Sluff Off Time: None after 30+ days

## CCCCCCCCCCCCNCCCC(C)C1CCC2C3C(OCCCN)CC4CC(OC(=O)CCN)CCC4(C)C3CC(OCCCN)C12C.O=S(=O)(O)c1cccc2c(S(=O)(=O)O)cccc12.O=S(=O)(O)c1cccc2c(S(=O)(=O)O)cccc12 (stereo not shown) [CSA-131 NDSA]
[4]; XRPD after DVS analysis (FIG. 8, 9)
  Effect of DVS analysis on crystallinity: did not significantly impact crystallinity
[4]; dynamic vapor sorption isotherm (FIG. 7)
  DVS hysteresis: minimal hysteresis
[2]; [11]
  Sluff Off Time: None after 30+ days
[2]; [12]
  Sluff Off Time: None after 30+ days
[2]; [13]
  Sluff Off Time: None after 30+ days
[3]; silicone coating on Silicone
  Sluff Off Time: None after 30+ days
[3]; [14]
  Sluff Off Time: None after 30+ days
[3]; silicone coating on Titanium
  Sluff Off Time: None after 30+ days
[5]; [11]
  Time for 50% of CSA to elute: >7 days
[5]; [12]
  Time for 50% of CSA to elute: >7 days
[5]; [13]
  Time for 50% of CSA to elute: >7 days
[6]; silicone coating on Silicone
  Time for 50% of CSA to elute: >7 days
[6]; [14]
  Time for 50% of CSA to elute: >7 days
[6]; silicone coating on Titanium
  Time for 50% of CSA to elute: >7 days
[7]
  Time for 50% of CSA to elute: >7 days
[8]
  EtO adducts observed by mass spectroscopy: no EtO adducts were observed
[9]; 0-24 hours
  % of Total μg on OD: 2.37%
  Eluted Amount in μg/cm^3: 0.95 μg/cm^2
[9]; 24-48 hours
  % of Total μg on OD: 2.14%
  Eluted Amount in μg/cm^3: 0.85 μg/cm^2
[9]; 48-72 hours
  % of Total μg on OD: 1.63%
  Eluted Amount in μg/cm^3: 0.65 μg/cm^2
[9]; 72-96 hours
  % of Total μg on OD: 2.01%
  Eluted Amount in μg/cm^3: 0.81 μg/cm^2
[9]; Total over 0-96 hours
  Average Amount Eluted: 324 µg
  % of Total μg on OD: 8.15%
  Eluted Amount in μg/cm^3: 3.26 μg/cm^2
[9]; time interval 0-24 hours
  Average Amount Eluted: 94.3 µg
[9]; time interval 24-48 hours
  Average Amount Eluted: 84.9 µg
[9]; time interval 48-72 hours
  Average Amount Eluted: 64.9 µg
[9]; time interval 72-96 hours
  Average Amount Eluted: 80.1 µg
ethanol
  Solubility in Ethanol: <0.05 mg/mL
water
  Solubility in Water: <0.02 mg/mL

## CCCCCCCCNCCCC(C)C1CCC2C3C(OCCCN)CC4CC(OCCCN)CCC4(C)C3CC(OCCCN)C12C.O=S(=O)(O)O (stereo not shown) [sulphate salt of CSA-13]
[10]; solvent 1,4-dioxane
  Approximate Solubility at 22° C.: <11.3 mg/mL
[10]; solvent 1-butanol
  Approximate Solubility at 22° C.: >37.7 mg/mL
[10]; solvent 2-propanol
  Approximate Solubility at 22° C.: >20.9 mg/mL
[10]; solvent Acetone
  Approximate Solubility at 22° C.: <10.5 mg/mL
[10]; solvent Acetonitrile
  Approximate Solubility at 22° C.: <10.4 mg/mL
[10]; solvent Dichloromethane
  Approximate Solubility at 22° C.: >193.9 mg/mL
[10]; solvent Ethanol
  Approximate Solubility at 22° C.: >98.4 mg/mL
[10]; solvent Methanol
  Approximate Solubility at 22° C.: >199.7 mg/mL
[10]; solvent TBME
  Approximate Solubility at 22° C.: <10.1 mg/mL
[10]; solvent Tetrahydrofuran
  Approximate Solubility at 22° C.: <11.0 mg/mL
[10]; solvent Toluene
  Approximate Solubility at 22° C.: >102.8 mg/mL
[1]; 40° C./75% RH
  Purity (%): 97.50%
[1]; 80° C.
  Purity (%): 97.96%
[1]; Ambient light
  Purity (%): 99.76%
[1]; Starting Purity
  Purity (%): 99.34%

— patent US20250281508A1, “CATIONIC STEROIDAL ANTIMICROBIAL SALTS” (BRIGHAM YOUNG UNIVERSITY, priority 2015, published 2025)
